{"source": "paper PMC9960778", "about": "“Polymer-Antimicrobial Peptide Constructs with Tailored Drug-Release Behavior” (Pharmaceutics, 2023)", "key": {"[1]": {"system": "E. coli", "test": "Fluorescent microscopy of labeled peptide/constructs with bacteria", "type": "cell-based, Escherichia coli", "conditions": "labeled sample added at amount corresponding to its MIC, spinning disc confocal, ex 488 nm, em 525 nm", "description": "The densities of the fresh overnight bacterial cultures were adjusted to the 0.5 McFarland standard, and 100 µL was placed in a sterile 96-well plate. The plates were incubated at room temperature for 2 h before the amount of fluorescently labeled F-PEP or F-P-PEP construct corresponding to its MIC was added to the appropriate wells. Images were captured immediately using a spinning disc confocal microscope (Andor xD revolution) on the Olympus IX81 platform and analyzed with iQ3 software, the excitation wavelength was 488 nm and the emission wavelength was 525 nm."}, "[2]": {"system": "Acinetobacter baumanii (CCM 2355)", "type": "cell-based", "conditions": "A. baumanii (Gram-negative); Mueller-Hinton broth/PBS 1:1, 35 °C, OD 625 nm every 60 min for 20 h; MIC as molar concentration of PEP; mean of at least three independent experiments", "procedure": "(§1) The antibacterial properties of HPMA-PEP constructs were tested against Acinetobacter baumanii (CCM 2355), Escherichia coli (CCM 4517), Staphylococcus epidermidis (CCM 2124), and Staphylococcus aureus (CCM 4516) (Czech Collection of Microorganisms, Brno, Czech Republic) in vitro. A single colony of the test microorganism was transferred into 5 mL of sterile broth (Luria-Bertani medium, Sigma) and cultivated overnight at 37 °C to prepare a bacterial test suspension in a double-concentrated Mueller-Hinton broth at a density equivalent to a 0.5 McFarland standard. Desired weight of lyophilized PEP or polymer-PEP was resuspended in sterile PBS and a concentration series was prepared. The bacterial suspension was then mixed with different concentrations of the PEP or polymer-PEP construct diluted in 1:1 in PBS and cultured at 35 °C. The bacterial growth was measured spectrophotometrically at 625 nm every 60 min for 20 h using an EON microplate spectrophotometer (Agilent Technologies, Santa Clara, CA, USA).\n(§2) The MIC was determined as the lowest concentration of PEP or polymer-PEP construct without observable bacterial growth. MIC was calculated as the molar concentration of PEP. […] If the bacteria were absent after 24 h of incubation, it was termed MBC."}, "[3]": {"system": "Staphylococcus epidermidis (CCM 2124)", "type": "cell-based", "conditions": "S. epidermidis (Gram-positive); Mueller-Hinton broth/PBS 1:1, 35 °C, OD 625 nm every 60 min for 20 h; MIC as molar concentration of PEP; mean of at least three independent experiments", "procedure": "as §1, §2"}, "[4]": {"system": "Staphylococcus aureus (CCM 4516)", "type": "cell-based", "conditions": "S. aureus (Gram-positive); Mueller-Hinton broth/PBS 1:1, 35 °C, OD 625 nm every 60 min for 20 h; MIC as molar concentration of PEP; mean of at least three independent experiments", "procedure": "as §1, §2"}, "[5]": {"system": "Escherichia coli (CCM 4517)", "type": "cell-based", "conditions": "E. coli (Gram-negative); Mueller-Hinton broth/PBS 1:1, 35 °C, OD 625 nm every 60 min for 20 h; MIC as molar concentration of PEP; mean of at least three independent experiments", "procedure": "as §1, §2"}, "[6]": {"system": "S. aureus", "conditions": "labeled sample added at amount corresponding to its MIC, spinning disc confocal, ex 488 nm, em 525 nm", "procedure": "The densities of the fresh overnight bacterial cultures were adjusted to the 0.5 McFarland standard, and 100 µL was placed in a sterile 96-well plate. […] Images were captured immediately using a spinning disc confocal microscope (Andor xD revolution) on the Olympus IX81 platform and analyzed with iQ3 software, the excitation wavelength was 488 nm and the emission wavelength was 525 nm."}, "[7]": {"biological_target": "cathepsin B (Homo sapiens, UniProt P07858)", "type": "in vitro ADME", "procedure": "The enzymatic activity of cathepsin B was probed immediately before the release measurements as described previously. The enzymolysis was monitored by HPLC and the rate of PEP release was calculated from the area of the corresponding polymer peaks from the fluorescent detector (excitation 280 nm, emission 350 nm of Trp in PEP). The spontaneous hydrolysis and release of PEP were measured by HPLC in two different PBS buffers to mimic the bloodstream, pH 7.4 and pH 5.5, at 37 °C."}, "[8]": {"system": "E. coli", "test": "Transmission electron microscopy (TEM) of treated bacteria", "type": "cell-based, Escherichia coli", "conditions": "2 × MIC, 2.5 h of incubation, negative staining", "procedure": "(§3) Bacteria in the exponential growth phase were mixed with the PEP or polymer-PEP constructs at a concentration equivalent to 2×MIC. After 2.5 h of incubation, 10 µL of the suspension was placed on a copper carbon-coated electron microscopic copper grid (Sigma Aldrich, Saint Louis, MO, USA) and left to adhere for 10 min. Then, the grid was washed twice with dH2O and stained with 0.8% sodium silicotungstate (Agar Scientific, Stansted, UK), pH 7.4, for 40 s. The samples were analyzed using a JEOL JEM-1010 instrument (JEOL Ltd., Tokyo, Japan) with an SIS MegaView III digital camera (Soft Imaging Systems) at acceleration voltage 80 kV and AnalySIS Software 2.0."}, "[9]": {"system": "S. aureus", "test": "Transmission electron microscopy (TEM) of treated bacteria", "type": "cell-based, Staphylococcus aureus", "conditions": "2×MIC, 2.5 h of incubation, negative staining", "procedure": "as §3"}}, "note": "Starred links: 1 amine or outer side, 2 acyl side, 3 side chain; linkers in the order of their positions; H or OH if unused. Non-standard residues stand in square brackets, D forms with d. Residues, ends and D or L forms follow the SMILES beside them. No end group written: not given here. *: point of attachment. X1 = N=c1ccc2c(-c3ccccc3C(=O)*)c3ccc(N)c(S(=O)(=O)O)c3oc-2c1S(=O)(=O)O; NMeGABA = CN(CCCC(=O)[*:2])[*:1]"}
{"molecule": "CC[C@H](C)[C@H](NC(=O)[C@H](CCCCN)NC(=O)[C@H](CCCCN)NC(=O)[C@H](CC(C)C)NC(=O)[C@H](CC(C)C)NC(=O)[C@H](CCCCN)NC(=O)[C@H](CCSC)NC(=O)[C@H](Cc1c[nH]c2ccccc12)NC(=O)[C@H](CCCCN)NC(=O)CNC(=O)CCCN(C)C(=O)c1ccccc1-c1c2ccc(=N)c(S(=O)(=O)O)c-2oc2c(S(=O)(=O)O)c(N)ccc12)C(=O)N[C@@H](CC(C)C)C(=O)N[C@@H](CCCCN)C(N)=O", "note": "[F-PEP] (X1-[NMeGABA]GKWMKLLKKILK-NH2)", "values": [{"measurement": "Interaction / accumulation on bacterial cells (fluorescence microscopy)", "setting": "[1]", "value": "accumulation of F-PEP and F-P-PEP on the bacterial cells"}, {"measurement": "MIC", "setting": "[2]", "value": 36.5, "unit": "µM"}, {"measurement": "MIC", "setting": "[3]", "value": 29.2, "unit": "µM"}, {"measurement": "MIC", "setting": "[4]", "value": 72.9, "unit": "µM"}, {"measurement": "MIC", "setting": "[5]", "value": 18.2, "unit": "µM"}]}
{"molecule": "GKWMKLLKKILK-NH2 [PEP]", "values": [{"measurement": "MIC", "setting": "[2]", "value": 5, "unit": "µM"}, {"measurement": "MIC", "setting": "[3]", "value": 3.4, "unit": "µM"}, {"measurement": "MIC", "setting": "[4]", "value": 10, "unit": "µM"}, {"measurement": "MIC", "setting": "[5]", "value": 5, "unit": "µM"}]}
{"molecule": "p(HPMA-co-Ma-β-Ala-ATTO-488-co-Ma-β-Ala-DBCO-azide-PEP) [F-P-PEP, fluorescently labeled non-cleavable polymer-PEP construct]", "values": [{"measurement": "Interaction / accumulation on bacterial cells (fluorescence microscopy)", "setting": "[6]", "value": "considerably less F-P-PEP accumulated on S. aureus"}, {"measurement": "Interaction / accumulation on bacterial cells (fluorescence microscopy)", "setting": "[1]", "value": "accumulation of F-PEP and F-P-PEP on the bacterial cells"}, {"measurement": "MIC", "setting": "[2]", "value": 38.7, "unit": "µM"}, {"measurement": "MIC", "setting": "[3]", "value": 77.5, "unit": "µM"}, {"measurement": "MIC", "setting": "[5]", "value": 77.5, "unit": "µM"}]}
{"molecule": "p(HPMA-co-Ma-β-Ala-DBCO-ValCit-PEP) [P-ValCit-PEP, enzymatically cleavable polymer-PEP construct, ValCit spacer]", "values": [{"measurement": "PEP release in contact with cathepsin B", "setting": "[7]", "value": "not releasing the PEP"}, {"measurement": "MIC", "setting": "[2]", "value": 16.8, "unit": "µM"}, {"measurement": "MIC", "setting": "[5]", "value": 134, "unit": "µM"}]}
{"molecule": "p(HPMA-co-Ma-β-Ala-DBCO-azide-PEP) [P-PEP, non-cleavable polymer-PEP construct, control system]", "values": [{"measurement": "Effect on bacterial cell morphology (TEM)", "setting": "[8]", "value": "induced cell morphological changes"}, {"measurement": "Effect on bacterial cell morphology (TEM)", "setting": "[9]", "value": "induced cell morphological changes, cell wall disruption and leakage of the cytoplasm"}, {"measurement": "MIC", "setting": "[2]", "value": 9.3, "unit": "µM"}, {"measurement": "MIC", "setting": "[3]", "value": 14.8, "unit": "µM"}, {"measurement": "MIC", "setting": "[5]", "value": 74.1, "unit": "µM"}]}
